Experimental data as given in patent US20070259354A1, “OPTIMIZED TRPM8 NUCLEIC ACID SEQUENCES AND THEIR USE IN CELL BASED ASSAYS AND TEST KITS TO IDENTIFY TRPM8 MODULATORS” (Senomyx, Inc., priority 2005, published 2007).
Read-outs that look alike come from different tables or passages of the source.

Experiments:
[1] = Human taste test, cooling intensity; type: in vivo; conditions: five human panelists, two trials, Tukey's HSD 5% risk level
Experimental: In this experiment the cooling effect of a putative coolant, SID 391254, identified using the subject assays was analyzed in human taste tests. Particularly, the cooling intensity for three test samples was tested in five human volunteer panelists in two trials. […] The tests were conducted in booths with the data recorded using Compusense software. Additionally, these experiments further included the administration of WS-3, a known coolant (positive control).
For both samples containing the known or the putative cooling compound (WS-3 and SID 391254 respectively), these compounds were contained in low sodium buffer (LSB) and 0.1% ethanol.
This experiment compared the cooling effect of another putative coolant compound (SID 10135651) identified using the described assays. […] As with the prior example, significant differences between the known and putative coolant compound vis-à-vis the control were calculated using Tukey's HSD (5% risk level). […] These tests were again conducted in booths with the data recorded using Compusense software.
The coolant effect of another putative cooling compound (SID 7292725) identified using the subject screening assays was tested in human taste tests. Again cooling intensity scores were determined based on results in 5 human taste panelists in two trials. Significant differences were again calculated using Tukey's HSD (5% risk level).

rat TRPM8 [2] = biological target: T1, rat TRPM8 (Rattus norvegicus, UniProt Q8R455); assay: Voltage clamp electrophysiology in Xenopus oocytes expressing rat TRPM8 (OpusXpress); type: cell-based; conditions: for peak agonist-induced currents: 4-6 independent oocytes; for peak agonist-induced currents / desensitization of agonist-induced currents: one day post-injection; for desensitization of agonist-induced currents: continued presence of agonist; for specific activation of rat TRPM8 expressed in oocytes: no responses in uninjected control oocytes
T1 construct: In the assays exemplified herein, cells which express the full-length TRPM8 polypeptide are used in high throughput assays; expressed in transfected cells; host or cells: Xenopus oocytes microinjected with rat TRPM8 cRNA
Experimental: Xenopus oocytes are microinjected with a TRPM8 nucleic acid sequence according to the invention.
The microinjected oocytes are voltage-clamped at around 60 mV using the OpusXpress 600A one day post-injection and treated with either buffer (control) or a potential or known TRPM8 modulator contained in same buffer at a fixed concentration or over a range of different concentrations (dose-escalation).
The current is measured for said buffer-treated or putative TRPM8 modulator-treated oocytes over a specific time period. Additionally, the current response is measured for oocytes treated with the same buffer which are not injected with a TRPM8 nucleic acid sequence (negative control).
The current response for said oocytes is compared in order to determine the effect (if any) of said potential TRPM8 modulator compound on TRPM8 activity and whether said effect is dose-specific.
In this experiment an electrophysiological assay was conducted using oocytes that express rat TRPM8. Specifically, oocytes were microinjected with 10 ng rat TRPM8 cRNA and were voltage-clamped at ˜60 mV using the OpusXpress 600A one day post-injection and treated with buffer and menthol (left traces) or icilin (right traces).
Oocytes were microinjected with 10 ng rat TRPM8 […] and voltage-clamped at ˜60 mV using the OpusXpress 6000A one day post-injection and then treated with the compounds shown in the FIG. 6. In the Figure, peak agonist-induced currents are summarized for 4-6 independent oocytes.
In these experiments, oocytes were again injected with 2 ng rat TRPM8 cRNA (as shown in left panel of FIG. 7) or uninjected (right panel) and currents were measured from ˜80 mV to 100 mV (in 20 mV increments) in the presence of buffer (control; green curves) or 100 μM menthol (red curves) four days post-injection. The blue curves in FIG. 7 depict menthol-specific currents obtained by subtracting control (green) from menthol (red) curves.
In this experiment, oocytes were again microinjected with 10 ng rat TRPM8 cRNA, voltage-clamped at ˜60 mV and currents measured 2-3 days post-injection.

rat TRPM8 [3] = biological target: T1, rat TRPM8; assay: Fluorimetric calcium imaging (FLIPR), HEK293 cells transiently transfected with rat TRPM8; type: cell-based; conditions: chilled stimulus compared with warmer stimulus
Experimental: HEK-293 cells (about 50-70% confluency) contained in 10 cm dishes are transfected with 5 μg of TRPM8 DNA and pcDNA3 and 2 μg of RFP plasmids using TransH293.
After 24 hours, the cells are split into 384-well plates at ˜50,000 cells/well.
At 48 hours post-transfection the cells are loaded with 4 μM Fluo-3-AM 3 AM in HBSS for 30 minutes at 37° C.
The cells are then washed twice within HBSS containing 2.5 mM Probenicid and returned to 37° C. for 15 minutes.
Compound plates are prepared in HBSS at twice the final concentration and kept at 37° C. to insure that rTRPM8 is not activated by a decrease in ambient temperature during stimulation (TRPM8 is activated by temperatures<22° C.).
HEK293 cells are transfected with a plasmid encoding the rat TRPM8 cDNA (in pcDNA3.1) and are seeded into 384-well plates. 48 hours later, cells are loaded with Fluo-3-AM. Cells are then stimulated with various stimuli as shown in FIG. 2 and fluorescence intensity in each well measured using a Fluorimetric Imaging Plate Reader (FLIPR). […]
HEK293 cells transfected with a plasmid encoding rat TRPM8 cDNA contained in pcDNA3.1 were seeded into 384-well plates. […] Cells were then stimulated with the stimuli shown in FIG. 3 and fluorescence intensity in each well measured using a Fluorimetric Imaging Plate Reader (FLIPR). […]

rat TRPM8 [4] = biological target: T1, rat TRPM8; conditions: 22-24° C., McKemy et al. Nature 416:52-58 (2002); read-out: reported EC50 in oocytes; cited from earlier work

T1 sequence (Q8R455 whole entry): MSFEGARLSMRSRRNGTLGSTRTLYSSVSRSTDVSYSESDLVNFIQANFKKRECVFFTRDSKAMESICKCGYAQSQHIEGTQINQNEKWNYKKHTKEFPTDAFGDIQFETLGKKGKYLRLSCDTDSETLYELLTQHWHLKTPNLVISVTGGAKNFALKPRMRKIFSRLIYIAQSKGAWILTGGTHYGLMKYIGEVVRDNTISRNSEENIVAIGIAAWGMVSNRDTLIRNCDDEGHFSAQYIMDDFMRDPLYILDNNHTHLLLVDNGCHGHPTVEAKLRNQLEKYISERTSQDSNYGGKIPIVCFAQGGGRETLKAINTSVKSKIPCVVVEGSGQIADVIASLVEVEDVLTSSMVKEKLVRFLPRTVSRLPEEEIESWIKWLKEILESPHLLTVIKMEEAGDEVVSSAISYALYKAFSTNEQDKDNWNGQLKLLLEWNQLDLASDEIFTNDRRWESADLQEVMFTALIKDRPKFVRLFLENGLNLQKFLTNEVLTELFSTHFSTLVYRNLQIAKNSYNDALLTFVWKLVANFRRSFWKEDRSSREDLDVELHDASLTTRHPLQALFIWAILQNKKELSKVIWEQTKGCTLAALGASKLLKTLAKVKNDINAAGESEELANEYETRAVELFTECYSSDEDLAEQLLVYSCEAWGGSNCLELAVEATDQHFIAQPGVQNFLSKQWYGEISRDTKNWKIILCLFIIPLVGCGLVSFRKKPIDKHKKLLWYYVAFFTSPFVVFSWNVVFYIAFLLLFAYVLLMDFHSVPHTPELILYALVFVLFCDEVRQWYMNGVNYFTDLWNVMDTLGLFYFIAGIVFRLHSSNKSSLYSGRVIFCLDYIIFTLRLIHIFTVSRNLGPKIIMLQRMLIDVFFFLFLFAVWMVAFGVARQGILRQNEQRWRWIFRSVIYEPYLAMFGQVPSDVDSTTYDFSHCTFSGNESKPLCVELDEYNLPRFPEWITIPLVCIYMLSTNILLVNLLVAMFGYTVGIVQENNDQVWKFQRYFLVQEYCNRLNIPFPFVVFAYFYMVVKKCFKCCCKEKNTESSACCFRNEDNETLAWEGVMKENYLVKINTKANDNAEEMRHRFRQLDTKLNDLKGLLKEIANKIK

peak agonist-induced currents (rat TRPM8 [2])	SMILES	cooling intensity compared with negative control (LSB and 0.1% ethanol) [1]	potency of chilled versus warmer agent at activating TRPM8 (rat TRPM8 [3])	desensitization of agonist-induced currents (rat TRPM8 [2])	specific activation of rat TRPM8 expressed in oocytes (rat TRPM8 [2])	EC50 (rat TRPM8 [4])	current/voltage (I/V) curve of menthol-specific currents (rat TRPM8 [2]; 100 μM menthol, 2 ng cRNA, four days post-injection)	EC50 (rat TRPM8 [2]; oocytes, 10 ng rat TRPM8 cRNA, 19.5° C.)
–	CCNC(=O)C1CC(C)CCC1C(C)C (centres unmarked) [WS-3]	substantially higher cooling intensity	–	–	–	–	–	–
small peak currents	CC12CCC(CC1)C(C)(C)O2 [eucalyptol]	–	–	–	–	–	–	–
large peak currents	O=C1NC(c2cccc([N+](=O)[O-])c2)=CCN1c1ccccc1O [icilin]	–	more potent	completely desensitize	specifically activate	–	–	–
small peak currents	C [methane]	–	–	–	–	–	–	–

SMILES	peak agonist-induced currents (rat TRPM8 [2])	cooling intensity compared with negative control (LSB and 0.1% ethanol) [1]	potency of chilled versus warmer agent at activating TRPM8 (rat TRPM8 [3])	desensitization of agonist-induced currents (rat TRPM8 [2])	specific activation of rat TRPM8 expressed in oocytes (rat TRPM8 [2])	EC50 (rat TRPM8 [4])	current/voltage (I/V) curve of menthol-specific currents (rat TRPM8 [2]; 100 μM menthol, 2 ng cRNA, four days post-injection)	EC50 (rat TRPM8 [2]; oocytes, 10 ng rat TRPM8 cRNA, 19.5° C.)
CC1CCC(C(C)C)C(O)C1 (centres unmarked) [menthol]	large peak currents	–	more potent	partially-desensitize	specifically activate	67 µM	outward rectification	29.6 µM
